Values quoted from earlier work, collected in patent publication US20050150424A1, “Ink composition and inkjet recording method” (FUJI PHOTO FILM CO., LTD., priority 2003, published 2005).
Where two headings read alike, the source gives them in different places.

Settings: in water at 25° C.

SMILES | pKa (Table 4) | pKa
C=C(C)C(=O)OCCOP(=O)(O)O [ethylene glycol methacrylate phosphate] |  | 2.5
CCCCC(CC)C(=O)O (centres unmarked) [2-Ethylhexanoic acid] | 2-Ethylhexanoic acid (pKa: 4.1) | 
C=C(C)C(=O)O [methacrylic acid] |  | 3.6
C=C(C)C(=O)OCCOC(=O)c1ccccc1C(=O)O [2-methacryloyloxyethyl phthalate] |  | 4.0
C=CC(=O)O [acrylic acid] |  | 3.6
